This is an account of results in US20020120001A1, “Compositions containing tryptamines, cartenoids and tocotrienols and having synergistic antioxidant effect” (Ashni Naturaceuticals, Inc., priority 2000, published 2002).

Converted amounts (≈) assume the structure as drawn.

The nature of the assay: peroxy radical scavenging activity (BODIPY 581/591 C11 fluorescence with AMVN radical generator, microplate; Median Effect/CalcuSyn analysis).
The mark [1] stands for this setting: Example 2, concentration of the named component in the 1:1 melatonin and natural astaxanthin mixture.
Setting [2] is: Example 4, component of the melatonin and mixed tocotrienols mixture.

Procedure: Measurement of peroxy radical scavenging activity of the individual compounds and combinations was performed essentially as described by Naguib (Analytical Biochemistry(1998) 265:290-298) with modifications to allow the assay to be performed on a microplate. The fatty acid indicator 4,4difluoro-5-(4-phenuyl-1,3-butadienyl)-4-bora-3a-4a-diaza-s-indacene-3-undecanate (BODIPY 581/591 C11) was purchased from Molecular Probes (Eugene, Oreg.). As a peroxy radical generator, 2,2′-azobis-2,4-dimethyl valeronitrile (AMVN) was used and obtained from WAKO Chemicals (Richmond, Va.). All standards were of the highest purity commercially available. Additionally, the solvents were of HPLC grade.
Fluorescence measurements were performed using a Packard FluoroCount microplate fluorometer equipped with a temperature-controlled plate holder. All measurements were preformed in a 96-well polypropylene plate with stirring.
Reactions in octane: butyronitrile (9:1, v/v) were carried out at 30° C. All fluorescence measurements were recorded every 15 minutes for 1 hour at excitation wavelengths of 570 nm, with emission at 620 nm. The net protection (area under the curve, AUC) by the antioxidant sample was calculated using the trapezoid method.
The final reaction mixture (200 μl) for the assay contained 0.5 μg/mL BODIPY 581/591C11 and 0.26 M AMVN in octane:butyronitrile (9:1, v/v). Stock solutions of the test samples were made up in chloroform and 6 μL was added to the reaction mixture to achieve the stated concentrations. The reaction was initiated by the addition of the AMVN fluorometric readings were then recorded every 15 minutes for one hour.
Synergy between melatonin and astaxanthin was assessed using CalcuSyn (BIOSOFT, biosoft.com). This statistical package performs multiple drug dose-effect calculations using the Median Effect methods described by T-C Chou and P. Talaly (Trends Pharmacol. Sci. 4:450-454), hereby incorporated by reference.
Cm is determined from the x-intercept of the median-effect plot. The fraction affected by the concentration of the test material is fa and the fraction unaffected by the concentration is fu (fu=1−fa). The exponent m is the parameter signifying the sigmoidicity or shape of the dose-effect curve. It is estimated by the slope of the median-effect plot.
The median-effect plot is a plot of x=log(C) vs y=log(fa/fu) and is based on the logarithmic form of Chou's median-effect equation. The goodness of fit for the data to the median-effect equation is represented by the linear correlation coefficient r of the median-effect plot.
Synergy of test components was quantified using the combination index (CI) parameter. The CI of Chou-Talaly is based on the multiple drug-effect and is derived from enzyme kinetic models (Chou, T.-C. and Talalay, P. (1977) A simple generalized equation for the analysis of multiple inhibitions of Michaelis-Menten kinetic systems. J. Biol. Chem. 252:6438-6442). The equation determines only the additive effect rather than synergism or antagonism. However, we define synergism as a more than the expected additive effect, and antagonism as a less than the expected additive effect as proposed by Cho and Talalay in 1983 (Trends Pharmacol. Sci. (1983) 4:450-454).
Dose-response curves were described with each test article separately and then in a two-way combination. For the individual dose-response curves, concentrations of melatonin included 100, 500 and 1000 μM, while the concentrations of astaxanthin were 49, 98, 490, and 980 μM.

With `CC1=C(/C=C/C(C)=C/C=C/C(C)=C/C=C/C=C(C)/C=C/C=C(C)/C=C/C2=C(C)C(=O)[C@@H](O)CC2(C)C)C(C)(C)C[C@H](O)C1=O` [Astaxanthin alone, 3, 3′-dihydroxy-β,β-carotene-4, 4′-dieto-β-carotene], the IC75 (Example 1, listed as of test material alone) was 185 (107-319) μM. Further, the IC50 (Example 5, test material alone) was 148 (94-232) μg test/mL.

The IC90 is the concentration at which the effect reaches the 90% level. In the case of `COc1ccc2[nH]cc(CCNC(C)=O)c2c1` [Melatonin alone, N-acetyl-5-methoxytryptamine], the IC50 was 284 µM (Example 1, test material alone, 95% confidence interval in parentheses); 38 µg/mL under setting [1]; 120 (105-137) μg/mL (Example 2, test material alone); 283 µM (Example 3, test material alone); 53 (25-112) μg test/mL (Example 4, test material alone); 53 (25-112) μg test/mL (Example 5, test material alone). The “increase in antioxidant potency” value by setting is: (Example 2, component in 1:1 melatonin and natural astaxanthin combination versus alone) 3.2 fold; (Example 4, component in 1:1 melatonin and mixed tocotrienols combination versus alone) 3.1 fold. Also, the IC75 under setting [1] is 54 µg/mL (≈ 232 µM). In addition, the IC90 under setting [1] is 77 µg/mL (≈ 331 µM). Also, the “concentration for 50 percent inhibition of peroxy radical formation” value under setting [2] was 17 µg/mL. Also, under setting [2], the “concentration for 75 percent inhibition of peroxy radical formation” value was 21 µg/mL. Under setting [2], the “concentration for 90 percent inhibition of peroxy radical formation” value is 26 µg/mL.

Take `CC1=C(/C=C/C(C)=C/C=C/C(C)=C/C=C/C=C(C)/C=C/C=C(C)/C=C/C2=C(C)CCCC2(C)C)C(C)(C)CCC1` [β-Carotene alone, β-carotene]: for the setting “Example 3, test material alone”, the IC50 is 366 µM.

Consider `CC1=C[C@H](O)CC(C)(C)[C@H]1/C=C/C(C)=C/C=C/C(C)=C/C=C/C=C(C)/C=C/C=C(C)/C=C/C1=C(C)C[C@@H](O)CC1(C)C` [Lutein alone, lutein], for which the IC50 (Example 3, test material alone) was 61 µM.
